Test: recombinant barcode read abundance after kanamycin selection (control-corrected) (log10(CPM+1)); higher = more efficient recombination; sequences stand for … in AGTGCAGAGAAAATCGGCCAGTTTTCTCTGCCTGCAGTCCGCATGCCGT…AGATTTATGCAGCGGACTGCCTTTCTCCCAAAGTGATAAACCGGACAGTATCATGGACCGGTTTTCCCGGTAATCCGTATTTGCAAGGTTGGTTTCACT; site = the 11-nt target
Procedure, shortened: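 Recombination efficiency was calculated from barcode counts at recombinant junctions, normalized to counts per million, averaged and corrected by the control. Each value is given as log10(CPM+1). The constructs were Gibson-cloned oligos (promoter, target, barcode, J23119-driven first 104 bridge RNA bases) in a vector with the remaining 73 bp and a T7-inducible recombinase, co-electroporated into E. coli with a donor plasmid and plated in duplicate on chloramphenicol/ampicillin LB agar (control) or chloramphenicol/ampicillin/kanamycin with 0.1 mM IPTG.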
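Also: IS621 recombinase and bridge RNA in Escherichia coli cells.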

Row | Sequence | recombinant barcode read abundance (log10)
1 | GAAAAGGCTTGGGTTCTAACCTGTTGCCT (site GAAAGGGCTAG) | 0.0324
2 | GAAAAGGCTTGGGTTCTAACCTGTTGCCT (site GAAATGGCTAG) | 0.206
3 | GAAACGTCTTGGGTTCTAACCTGTTGCCT (site GAAACGTCTAG) | 1.65
4 | GAAACGTCTTGGGTTCTAACCTGTTGCCT (site GACAAGTCTAG) | 0.0765
5 | GAAACTCCTTGGGTTCTAACCTGTTGCCT (site GAAAATCCTAG) | 0.13
6 | GAAACTCCTTGGGTTCTAACCTGTTGCCT (site GAAACTCCTAG) | 0.352
7 | GAAACTCCTTGGGTTCTAACCTGTTGCCT (site GAAAGTCCTAG) | 0.235
8 | GAAACTCCTTGGGTTCTAACCTGTTGCCT (site GAAATTCCTAG) | 0.0462
9 | GAAATGACTTGGGTTCTAACCTGTTGCCT (site GAAATGACTAG) | 0.908
10 | GAAATGACTTGGGTTCTAACCTGTTGCCT (site GCAATGACTAG) | 0.152
11 | GAAATGACTTGGGTTCTAACCTGTTGCCT (site GGAATGACTAG) | 0.066
12 | GAAATGACTTGGGTTCTAACCTGTTGCCT (site GTAATGACTAG) | 0.202
13 | GAACCTTCTTGGGTTCTAACCTGTTGCGG (site GAACCTTCTCC) | 0.93
14 | GAACCTTCTTGGGTTCTAACCTGTTGCGG (site TTCTACACTAT) | 0.0281
15 | GAACGACCTTGGGTTCTAACCTGTTGCCT (site AAACGACCTAG) | 0.331
16 | GAACGACCTTGGGTTCTAACCTGTTGCCT (site CAACGACCTAG) | 0.0122
17 | GAACGACCTTGGGTTCTAACCTGTTGCCT (site GAACGACCTAG) | 0.721
18 | GAACGACCTTGGGTTCTAACCTGTTGCCT (site TAACGACCTAG) | 0.144

Row | Sequence | recombinant barcode read abundance (log10)
19 | GAACTCCCTTGGGTTCTAACCTGTTGCGG (site GAACTCCCTCC) | 0.758
20 | GAACTCCCTTGGGTTCTAACCTGTTGCGG (site TGTTGGTCTAA) | 0.0984
21 | GAACTCTCTTGGGTTCTAACCTGTTGCTA (site CCTAAAACTAG) | 0.0469
22 | GAACTCTCTTGGGTTCTAACCTGTTGCTA (site GAACTCTCTTA) | 1.66
23 | GAACTGTCTTGGGTTCTAACCTGTTGCCA (site GAACTGTCTTG) | 0.995
24 | GAACTGTCTTGGGTTCTAACCTGTTGCCA (site GTACTCTCTTG) | 0.0913
25 | GAAGAGCCTTGGGTTCTAACCTGTTGCCT (site GAAGAGCCTAG) | 2.62
26 | GAAGAGCCTTGGGTTCTAACCTGTTGCCT (site GAAGCGCCTAG) | 0.189
27 | GAAGAGCCTTGGGTTCTAACCTGTTGCCT (site GAAGGGCCTAG) | 0.0404
28 | GAAGAGCCTTGGGTTCTAACCTGTTGCCT (site GAAGTGCCTAG) | 0.0759
29 | GAAGAGGCTTGGGTTCTAACCTGTTGCCA (site GAAGAGGCTTG) | 0.536
30 | GAAGAGGCTTGGGTTCTAACCTGTTGCCA (site TGTCTCCCTAC) | 0.115
31 | GAAGCCGCTTGGGTTCTAACCTGTTGCCT (site GAAGACGCTAG) | 0.0292
32 | GAAGCCGCTTGGGTTCTAACCTGTTGCCT (site GAAGCCGCTAG) | 2.26
33 | GAAGCCGCTTGGGTTCTAACCTGTTGCCT (site GAAGGCGCTAG) | 0.16
34 | GAAGCCGCTTGGGTTCTAACCTGTTGCCT (site GAAGTCGCTAG) | 0.302
35 | GAAGGAGCTTGGGTTCTAACCTGTTGCAG (site ATGCCTCCTAA) | 0.0306
36 | GAAGGAGCTTGGGTTCTAACCTGTTGCAG (site GAAGGAGCTCT) | 1.51
